# Measured values published in patent US20110173718A1, “HERBICIDE TOLERANT PLANTS” (SYNGENTA CROP PROTECTION, INC., priority 2008, published 2011).
# Where “and” joins values, the source holds several entries; their conditions need not be identical. Identical values can stand only once.
# Columns and labels:
# Assay type in all cases: in vivo
# [1] = test system: Arabidopsis HST transgenic tobacco plants; assay: Glasshouse spray test, Arabidopsis HST transgenic tobacco; conditions: D2 line (Arabidopsis HST, segregating T1), individual plants
# tobacco leaf explants = assay: Tobacco leaf explants plated on NBM medium with haloxydine; conditions: 1 mg/1 haloxydine
# Protocol: To roughly evaluate comparative levels of ectopic HST expression independent PCR positive tobacco shoots have young leaves removed, cut into 1 cm squares and plated onto NBM medium incorporating 1 mg/1 haloxydine. These leaf explants produce callus and ultimately regenerated shoots.
# [2] = test system: Tobacco (var Samsun) plantlets in agar; assay: HST + HPPD herbicide effects on tobacco seedlings in agar; conditions: for % Injury, plus Mesotrione (0.004 ppm) (EXPECTED): Colby expected; for % Injury (O − E): observed minus expected
# Protocol: Tobacco (var Samsun) plantlets germinated aseptically in agar made up in 1/3 strength Murashige and Skoog salts medium along with various doses of herbicide. Bleaching damage to emerging plantlets is assessed 7 DAT. The plantlets are kept covered under clear perspex and grown at 18° C. (night) and 24° C. (day) under a 16 h day (˜500-900 umol/m^2), 8 h darkness regime. Herbicide affected plantlets are bleached white and grow less. Synergistic/antagonistic responses are calculated using the Colby formula (Colby, S. R. (Calculating synergistic and antagonistic responses of herbicide Combinations”, Weeds, 15, p. 20-22, 1967).
# [3] = test system: Chlamydomonas HST T0 tobacco lines; assay: Glasshouse spray test, Chlamydomonas HST transgenic tobacco; set-up: herbicidal damage score: scale not given here; conditions: for blch (% bleaching at the meristem relative to control plants) / ht (% height reduction relative to control plants): 100 g, individual T0 lines
# From the text: In just the same way the Chlamydomonas HST gene sequence (AM285678) is codon-optimised for tobacco and cloned behind the double Cauliflower mosaic virus 35S promoter and Tobacco mosaic virus enhancer sequences and in front of a nos gene terminator, cloned into a binary vector and transformed into tobacco to produce a population of T0 plants.
# [4] = haloxydine 0.3 ppm + mesotrione 0.004 ppm, agar, 7 DAT
# [5] = haloxydine 0.6 ppm + mesotrione 0.004 ppm, agar, 7 DAT
# [6] = haloxydine 1.2 ppm + mesotrione 0.004 ppm, agar, 7 DAT
# [7] = haloxydine 2.4 ppm + mesotrione 0.004 ppm, agar, 7 DAT
# [8] = haloxydine 4.7 ppm + mesotrione 0.004 ppm, agar, 7 DAT
# [9] = haloxydine 9.4 ppm + mesotrione 0.004 ppm, agar, 7 DAT
# [10] = haloxydine 18.8 ppm + mesotrione 0.004 ppm, agar, 7 DAT
# [11] = haloxydine 37.5 ppm + mesotrione 0.004 ppm, agar, 7 DAT
smiles,measurement,setting,value
"Oc1c(Cl)c(F)nc(F)c1Cl [Compound 1.1, haloxydine]",% damage at 7 DAT,[1]; 25 gai/ha,55% (2×) and 35% and 65% (3×) and 100% and 30%
same,callus and shoot regeneration,tobacco leaf explants; explants over expressing HST,green callus and shoots
same,callus and shoot regeneration,tobacco leaf explants; untransformed explants or transformants with limited HST expression,bleached callus and stunted bleached shoots that ultimately died
same,"% Injury, plus Mesotrione (0.004 ppm) (EXPECTED)",[2]; [4],41.5%
same,"% Injury, plus Mesotrione (0.004 ppm) (EXPECTED)",[2]; [5],48%
same,"% Injury, plus Mesotrione (0.004 ppm) (EXPECTED)",[2]; [6],58%
same,"% Injury, plus Mesotrione (0.004 ppm) (EXPECTED)",[2]; [7],67.5%
same,"% Injury, plus Mesotrione (0.004 ppm) (EXPECTED)",[2]; [8],80%
same,"% Injury, plus Mesotrione (0.004 ppm) (EXPECTED)",[2]; [9],94%
same,"% Injury, plus Mesotrione (0.004 ppm) (EXPECTED)",[2]; [10],100%
same,"% Injury, plus Mesotrione (0.004 ppm) (EXPECTED)",[2]; [11],100%
same,effect of adding a low dose of mesotrione on the herbicidal effect,[2]; agar grown tobacco plantlets,synergises
same,"% Injury, plus Mesotrione (0.004 ppm) (OBSERVED)",[2]; [4],50%
same,"% Injury (bleaching), haloxydine only","[2]; haloxydine 0.3 ppm, agar, 7 DAT",10%
same,"% Injury, plus Mesotrione (0.004 ppm) (OBSERVED)",[2]; [5],50%
same,"% Injury (bleaching), haloxydine only","[2]; haloxydine 0.6 ppm, agar, 7 DAT",20%
same,"% Injury, plus Mesotrione (0.004 ppm) (OBSERVED)",[2]; [6],70%
same,"% Injury (bleaching), haloxydine only","[2]; haloxydine 1.2 ppm, agar, 7 DAT",35%
same,"% Injury, plus Mesotrione (0.004 ppm) (OBSERVED)",[2]; [7],90%
same,"% Injury (bleaching), haloxydine only","[2]; haloxydine 2.4 ppm, agar, 7 DAT",50%
same,"% Injury, plus Mesotrione (0.004 ppm) (OBSERVED)",[2]; [8],100%
same,"% Injury (bleaching), haloxydine only","[2]; haloxydine 4.7 ppm, agar, 7 DAT",70%
same,"% Injury, plus Mesotrione (0.004 ppm) (OBSERVED)",[2]; [9],100%
same,"% Injury (bleaching), haloxydine only","[2]; haloxydine 9.4 ppm, agar, 7 DAT",90%
same,"% Injury, plus Mesotrione (0.004 ppm) (OBSERVED)",[2]; [10],100%
same,"% Injury (bleaching), haloxydine only","[2]; haloxydine 18.8 ppm, agar, 7 DAT",100%
same,"% Injury, plus Mesotrione (0.004 ppm) (OBSERVED)",[2]; [11],100%
same,"% Injury (bleaching), haloxydine only","[2]; haloxydine 37.5 ppm, agar, 7 DAT",100%
same,% Injury (O − E),[2]; [4],8.5%
same,% Injury (O − E),[2]; [5],2%
same,% Injury (O − E),[2]; [6],12%
same,% Injury (O − E),[2]; [7],22.5%
same,% Injury (O − E),[2]; [8],20%
same,% Injury (O − E),[2]; [9],6%
same,% Injury (O − E),[2]; [10],0%
same,% Injury (O − E),[2]; [11],0%
CC(C)C(=O)Oc1c(-c2c(F)ccc(Br)c2Cl)c(=O)n(CC(F)F)c2nccnc12 [Compound 2.30],% damage at 7 DAT,[1]; 150 gai/ha,65% and 40% (2×) and 50% and 55% and 60% (2×) and 90%
same,% damage at 7 DAT,[1]; 300 gai/ha,60% (2×) and 80% and 95% and 98% and 70% and 90% (2×)
same,% damage at 7 DAT,[1]; 450 gai/ha,35% (2×) and 20% and 55% (2×) and 60% and 65% and 70%
same,blch (% bleaching at the meristem relative to control plants),[3]; 17 DAT,0% (14×) and 15% (3×) and 20% and 65% and 10% (2×) and 90% and 75%
same,ht (% height reduction relative to control plants),[3]; 17 DAT,15% (2×) and 10% (2×) and 55% (3×) and 25% and 30% (2×) and 0% (2×) and 5% and 8% and 20% (3×) and 40% (2×) and 50% and 35% and 90% and 85%
same,blch (% bleaching at the meristem relative to control plants),[3]; 26 DAT,0% (19×) and 25% and 85% (2×) and 90% (2×)
same,ht (% height reduction relative to control plants),[3]; 26 DAT,30% (5×) and 20% (6×) and 70% and 10% and 80% and 35% (2×) and 90% (2×) and 50% and 25% and 75% (2×) and 95% and 60%
"CS(=O)(=O)c1ccc(C(=O)C2C(=O)CCCC2=O)c([N+](=O)[O-])c1 [Mesotrione, mesotrione, reference compound]",herbicidal damage score,"[3]; Chlamydomonas HST T0 tobacco events (one value per event), 15 g/ha of mesotrione, 21 DAT",70 and 55 and 85 and 65 and 80 and 75 and 60 and 100
same,"% Injury (bleaching), mesotrione by itself","[2]; mesotrione 0.004 ppm, 0.75% v/v DMSO, no haloxydine, agar, 7 DAT",35%
